Data taken from US9403755B2, “Isometheptene isomer” (TONIX PHARMACEUTICALS INC., priority 2013, dated 2016).

Assays:
[1] = cited from earlier work; for plasma half-life: human volunteers, enantiomers
[2] = hydrochloride or mucate salt form; cited from earlier work
α2B-adrenergic receptor = target: T1, α2B-adrenergic receptor (Homo sapiens, UniProt P18089); experiment: ligand binding screen and equilibrium binding, α2B-adrenergic receptor; settings: Adrenergic a2B; for inhibition at 10 µM: inhibition of ligand binding; for Ki: equilibrium binding
T1 sequence (P18089 1-450): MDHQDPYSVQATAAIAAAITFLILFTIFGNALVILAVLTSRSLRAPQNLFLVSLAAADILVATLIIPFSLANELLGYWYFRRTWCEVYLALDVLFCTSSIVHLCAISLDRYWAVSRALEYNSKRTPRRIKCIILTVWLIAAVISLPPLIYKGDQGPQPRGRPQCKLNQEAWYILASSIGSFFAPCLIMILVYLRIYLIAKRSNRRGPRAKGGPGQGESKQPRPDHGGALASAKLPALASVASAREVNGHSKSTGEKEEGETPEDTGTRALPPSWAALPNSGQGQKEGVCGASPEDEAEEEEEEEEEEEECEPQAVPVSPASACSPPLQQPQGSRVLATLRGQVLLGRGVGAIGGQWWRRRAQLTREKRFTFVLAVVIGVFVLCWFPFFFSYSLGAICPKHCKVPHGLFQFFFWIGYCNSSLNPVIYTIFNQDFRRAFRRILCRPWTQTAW

5-HT7 = 5-HT7 (Homo sapiens, UniProt P34969); experiment: receptor binding screen, 5-HT7; settings: 5-HT7, 10 μM
Chain of 5-HT7 (P34969 whole entry, species assumed): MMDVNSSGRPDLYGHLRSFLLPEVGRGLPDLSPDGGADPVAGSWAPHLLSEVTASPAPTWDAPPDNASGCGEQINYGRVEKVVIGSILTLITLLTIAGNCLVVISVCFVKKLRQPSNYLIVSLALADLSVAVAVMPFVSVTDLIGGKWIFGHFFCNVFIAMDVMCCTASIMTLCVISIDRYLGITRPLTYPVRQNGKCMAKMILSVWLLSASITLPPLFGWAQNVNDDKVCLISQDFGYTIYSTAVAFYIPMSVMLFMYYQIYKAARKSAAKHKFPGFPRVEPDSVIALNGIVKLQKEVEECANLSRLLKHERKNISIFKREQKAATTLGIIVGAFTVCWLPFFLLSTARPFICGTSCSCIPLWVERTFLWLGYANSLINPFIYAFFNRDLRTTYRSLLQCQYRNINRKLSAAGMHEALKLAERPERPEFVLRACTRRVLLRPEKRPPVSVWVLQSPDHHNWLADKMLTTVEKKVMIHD

Adrenergic a2C = target: T2, Adrenergic a2C (Homo sapiens, UniProt P18825); experiment: receptor binding screen, Adrenergic a2C
T2 sequence (P18825 1-462): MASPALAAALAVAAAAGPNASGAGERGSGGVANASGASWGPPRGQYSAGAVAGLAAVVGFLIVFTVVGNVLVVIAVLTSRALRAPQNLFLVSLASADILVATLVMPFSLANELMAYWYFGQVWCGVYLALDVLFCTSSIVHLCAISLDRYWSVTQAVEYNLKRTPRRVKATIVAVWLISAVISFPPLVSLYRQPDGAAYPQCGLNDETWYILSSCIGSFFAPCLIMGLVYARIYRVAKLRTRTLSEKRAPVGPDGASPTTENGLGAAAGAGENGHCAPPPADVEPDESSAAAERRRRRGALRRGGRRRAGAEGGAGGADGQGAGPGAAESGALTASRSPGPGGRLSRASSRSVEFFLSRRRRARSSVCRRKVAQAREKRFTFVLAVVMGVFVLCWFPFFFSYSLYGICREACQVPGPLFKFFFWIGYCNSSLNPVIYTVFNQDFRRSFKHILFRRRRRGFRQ

5-HT 1A = target: T3, 5-HT 1A (Homo sapiens, UniProt P08908); experiment: receptor binding screen, 5-HT 1A
T3 sequence (P08908 1-422): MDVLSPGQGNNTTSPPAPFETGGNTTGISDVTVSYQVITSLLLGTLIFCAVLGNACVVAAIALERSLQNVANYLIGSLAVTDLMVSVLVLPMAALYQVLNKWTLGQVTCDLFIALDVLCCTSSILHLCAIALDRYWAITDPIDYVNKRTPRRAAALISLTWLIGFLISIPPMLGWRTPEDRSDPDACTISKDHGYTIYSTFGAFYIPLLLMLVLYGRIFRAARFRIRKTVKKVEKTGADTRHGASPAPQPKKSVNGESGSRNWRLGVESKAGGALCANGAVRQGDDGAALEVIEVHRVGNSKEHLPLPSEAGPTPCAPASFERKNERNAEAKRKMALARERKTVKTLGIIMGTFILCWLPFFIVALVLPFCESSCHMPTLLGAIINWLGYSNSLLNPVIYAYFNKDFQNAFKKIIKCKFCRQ

human TAAR1 receptor = target: T4, human TAAR1 receptor (Homo sapiens, UniProt Q96RJ0); experiment: TAAR1 cAMP Biosensor Assay; format: cell-based; settings: for Efficacy: TAAR1 activation, final concentration of 10 μM, free base; for EC50: TAAR1 cAMP accumulation, agonist dose response, mucate salts
T4 sequence (Q96RJ0 1-339): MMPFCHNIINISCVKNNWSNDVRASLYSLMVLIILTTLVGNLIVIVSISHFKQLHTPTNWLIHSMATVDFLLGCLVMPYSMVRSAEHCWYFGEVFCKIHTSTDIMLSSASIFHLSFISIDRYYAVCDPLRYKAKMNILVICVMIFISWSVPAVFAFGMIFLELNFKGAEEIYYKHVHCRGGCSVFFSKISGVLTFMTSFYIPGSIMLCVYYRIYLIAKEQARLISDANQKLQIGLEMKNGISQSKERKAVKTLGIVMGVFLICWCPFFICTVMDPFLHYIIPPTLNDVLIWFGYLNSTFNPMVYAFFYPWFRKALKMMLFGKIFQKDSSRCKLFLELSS
Description: To measure interactions with TAAR1, cell line stably expressing a recombinant human TAAR1 receptor were studied in the cAMP Biosensor Assay (DiscoveRx, Freemont, Calif.) since TAAR1 is coupled to G-proteins that signal through cAMP. The (S)- and (R)-Isometheptene isomers at a final concentration of 10 μM activate TAAR1 differentially, as shown on the table below, wherein (S)-Isometheptene activates more effectively than the R-Isometheptene. These activities may be linked to side-effects of racemic Isometheptene, due to the interaction of S-Isometheptene to the TAAR1 tyramine receptor.
Isometheptene Mucate USP, Isometheptene Mucate isomer 1, Isometheptene Mucate isomer 2 and p-Tyramine (control) in the TAAR1 cAMP Biosensor Assay of FIG. 23 as shown by the following diagrams (A), (B), (C), and (D). The data is shown as an agonist dose response curve, normalized to the maximal and minimal response observed in the presence of control ligand and vehicle respectively
The cAMP Hunter cell line expressing human TAAR1 was expanded from freezer stocks according to standard procedures. Cells were seeded in a total volume of 20 μL into white walled, 384-well microplates and incubated at 37° C. for the appropriate time prior to testing. cAMP modulation was determined using the DiscoveRx HitHunter cAMP XS+ assay. For agonist determination, cells were incubated with sample to induce response. Media was aspirated from cells and replaced with 15 μL 2:1 HBSS/10 mM Hepes:cAMP XS+ Ab reagent. Intermediate dilution of sample stocks was performed to generate 4× sample in assay buffer. 4.5 μL of 4× sample was added to cells and incubated at 37° C. or room temperature for 30 or 60 minutes. Final assay vehicle concentration was 1%. After appropriate compound incubation, assay signal was generated through incubation with 20 μL cAMP XS+ ED/CL lysis cocktail for one hour followed by incubation with 20 μL cAMP XS+ EA reagent for three hours at room temperature. Microplates were read following signal generation with a PerkinElmer Envision™ instrument for chemiluminescent signal detection. Compound activity was analyzed using CBIS data analysis suite (ChemInnovation, CA). For Gs agonist mode assays, percentage activity was calculated using the following formula: % Activity=100%×(mean RLU of test sample−mean RLU of vehicle control)/(mean RLU of MAX control−mean RLU of vehicle control).

[3] = tested on: Sigma receptor (non-selective); experiment: ligand binding screen, non-selective Sigma receptor; settings: Sigma (non-select), inhibition of ligand binding
[4] = target: Imidazoline-2 (I2) receptor; experiment: central Imidazoline I2 receptor radioligand binding assay; design: species or system rat
Description: Evaluation of the Affinity of Compounds for the Central Imidazoline I2 Receptor in the Rat Cerebral Cortex Determined in a Radioligand Binding Assay.
Membrane homogenates of cerebral cortex (1 mg protein) are incubated for 30 min at 22° C. with 2 nM [^3H]idazoxan in the absence or presence of the test compound in a buffer containing 50 mM Tris-HCl (pH 7.4), 0.5 mM EDTA and 3 μM yohimbine.
Nonspecific binding is determined in the presence of 10 μM cirazoline.
Following incubation, the samples are filtered rapidly under vacuum through glass fiber filters (Filtermat B, Wallac) presoaked with 0.3% PEI and rinsed several times with an ice-cold buffer containing 50 mM Tris-HCl and 150 mM NaCl using a 48-sample cell harvester (Mach II, Tomtec). The filters are dried then counted for radioactivity in a scintillation counter (Betaplate 1204, Wallac) using a solid scintillator (Meltilex B/HS, Wallac).
The results are expressed as a percent inhibition of the control radioligand specific binding. The standard reference compound is idazoxan, which is tested in each experiment at several concentrations to obtain a competition curve from which its IC50 is calculated.
Bibliographic reference: BROWN, C. M., MAC KINNON, A. C., McGRATH, J. C., SPEDDING, M. and KILPATRICK A. T. (1990), α2-adrenoceptor subtypes and imidazoline-like binding sites in the rat brain, Brit. J. Pharmacol, 99: 803.

[5] = tested on: Imidazoline 1 (I1) receptor; experiment: Imidazoline I1 receptor radioligand binding assay; design: species or system bovine; settings: for Ki: Imidazoline-1 (I1), equilibrium binding
Description: Evaluation of the Affinity of Compounds for the Peripheral Imidazoline Receptor in Bovine Adrenal Medulla Glands Determined in a Radioligand Binding Assay.
Membrane homogenates of adrenal medulla glands (200 μg protein) are incubated for 60 min at 22° C. with 15 nM [^3H]clonidine in the absence or presence of the test compound in a buffer containing 137 mM NaCl, 2.68 mM KCl, 0.5 mM MgCl2, 8.1 mM Na2HPO4, 1.47 mM KH2PO4, 0.5 mM EGTA, 0.5 mM EDTA, 0.5% ascorbic acid and 0.1% BSA (pH 7.4). It also contains 10 μM RX821002 to block the α2-adrenergic receptors.
Nonspecific binding is determined in the presence of 10 μM rilmenidine.
Following incubation, the samples are filtered rapidly under vacuum through glass fiber filters (GF/B, Packard) presoaked with 0.3% PEI and rinsed several times with ice-cold 50 mM Tris-HCl using a 96-sample cell harvester (Unifilter, Packard). The filters are dried then counted for radioactivity in a scintillation counter (Topcount, Packard) using a scintillation cocktail (Microscint 0, Packard).
The results are expressed as a percent inhibition of the control radioligand specific binding.
The standard reference compound is rilmenidine, which is tested in each experiment at several concentrations to obtain a competition curve from which its IC50 is calculated.
Bibliographic reference: MOLDERINGS, G. J., MOURA, D., FINK, K., BONISCH, H. and GOTHERT, M. (1993), Binding of [3H]clonidine to I1-imidazoline sites in bovine adrenal medullary membranes, Naun.-Sch. Arch. Pharm., 348: 70.

Sigma-1 receptor = Sigma-1 receptor (Homo sapiens, UniProt Q99720); experiment: equilibrium binding, Sigma-1 receptor; settings: Sigma 1, equilibrium binding
Chain of Sigma-1 receptor (Q99720 whole entry, species assumed): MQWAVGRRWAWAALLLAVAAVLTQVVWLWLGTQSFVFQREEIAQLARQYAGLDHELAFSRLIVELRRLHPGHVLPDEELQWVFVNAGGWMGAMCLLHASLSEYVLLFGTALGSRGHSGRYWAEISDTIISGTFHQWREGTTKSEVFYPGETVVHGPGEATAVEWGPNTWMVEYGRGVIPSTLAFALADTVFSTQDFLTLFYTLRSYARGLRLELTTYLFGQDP

Sigma-2 receptor = Sigma-2 receptor (Homo sapiens, UniProt Q5BJF2); experiment: equilibrium binding, Sigma-2 receptor; settings: Sigma 2, equilibrium binding
Chain of Sigma-2 receptor (Q5BJF2 whole entry, species assumed): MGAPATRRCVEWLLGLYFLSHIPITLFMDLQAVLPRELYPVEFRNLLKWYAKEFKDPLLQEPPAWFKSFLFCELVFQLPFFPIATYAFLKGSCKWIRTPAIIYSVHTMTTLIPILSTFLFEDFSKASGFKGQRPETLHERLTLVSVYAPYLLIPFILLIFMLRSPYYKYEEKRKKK

**Q.** With `CNC(C)Cc1ccc2c(c1)OCO2` (racemic) [MDMA, 3,4-methylenedioxy-N-methylamphetamine] as the compound, how does the half-life ([1]; given as the racemate) read?
**A.** around 8 hours

**Q.** For `CNC(C)CCC=C(C)C` (racemic) [Racemic, reference compound], which solubility in water [2] is on record?
**A.** soluble in water

**Q.** And the inhibition at 10 µM (α2B-adrenergic receptor)?
**A.** 76%

**Q.** And the inhibition at 10 µM (5-HT7)?
**A.** 46%

**Q.** And the inhibition at 10 µM (Adrenergic a2C)?
**A.** 41%

**Q.** What about the inhibition at 10 µM (5-HT 1A) of the same compound?
**A.** 37%

**Q.** What does the source list for `CN[C@@H](C)CCC=C(C)C` (single isomer, unassigned) [Isomer 1]?
**A.** Ki (α2B-adrenergic receptor): 2.7 µM; inhibition at 10 µM (α2B-adrenergic receptor): 29%; inhibition at 10 µM (5-HT7): 13%; inhibition at 10 µM (Adrenergic a2C): 0%; Efficacy (human TAAR1 receptor): 49.4%; Inhibition @ 10 μM(%) [3]: 87%; Ki [4]: 1.1 µM; Inhibition @ 10 μM(%) [4]: 84%; interaction with I1 less avidly than the R-Isometheptene enantiomer ([5]; (S) versus (R) enantiomer): about 60 fold; Ki [5]: 1.1 µM; Ki (Sigma-1 receptor): 2.1 µM; Ki (Sigma-2 receptor): 5.2 µM

**Q.** Which Ki (α2B-adrenergic receptor) does the source give for `CNC(C)CCC=C(C)C` (single isomer, unassigned) [Isomer 2] here?
**A.** 2.3 µM

**Q.** What about the inhibition at 10 µM (α2B-adrenergic receptor) of the same compound?
**A.** 57%

**Q.** What about the inhibition at 10 µM (5-HT7) of the same compound?
**A.** 31%

**Q.** What about the inhibition at 10 µM (Adrenergic a2C) of the same compound?
**A.** 0%

**Q.** And the Efficacy (human TAAR1 receptor)?
**A.** 25.6%

**Q.** What about the “Inhibition @ 10 μM(%)” value [3] of the same compound?
**A.** 86%

**Q.** What about the Ki [4] of the same compound?
**A.** 1.5 µM

**Q.** What about the “Inhibition @ 10 μM(%)” value [4] of the same compound?
**A.** 86%

**Q.** What about the “binding to I1 receptor more avidly than the (S)-Isometheptene enantiomer” value ([5]; (R) versus (S) enantiomer) of the same compound?
**A.** about 60 fold

**Q.** And the Ki [5]?
**A.** 0.018 µM

**Q.** And the Ki (Sigma-1 receptor)?
**A.** 1.9 µM

**Q.** What about the Ki (Sigma-2 receptor) of the same compound?
**A.** 5.6 µM

**Q.** For `CN[C@@H](C)CCC=C(C)C` (single isomer, unassigned) [Isometheptene Mucate Isomer 1], which EC50 (human TAAR1 receptor) is on record?
**A.** 21.1 µM

**Q.** For `O=C(O)[C@@H](O)[C@H](O)[C@H](O)[C@@H](O)C(=O)O` (single isomer, unassigned) [Isometheptene Mucate Isomer 2], which EC50 (human TAAR1 receptor) is on record?
**A.** 29.5 µM

**Q.** For `CN[C@H](C)Cc1ccc2c(c1)OCO2` [(R)-MDMA, (R)-3,4-methylenedioxy-N-methylamphetamine], which “area under the blood plasma concentration versus time curve (AUC), (R)-MDMA relative to (S)-MDMA” value ([1]; 40 mg oral dose in human volunteers) is on record?
**A.** two to four times higher

**Q.** And the plasma half-life [1]?
**A.** 5.8 ± 2.2 h

**Q.** With `CN[C@@H](C)Cc1ccc2c(c1)OCO2` [(S)-MDMA] as the compound, how does the plasma half-life [1] read?
**A.** 3.6 ± 0.9 h
